# Measured values: US20250057790A1, “AN INJECTABLE PHARMACEUTICAL COMPOSITION FOR THE TREATMENT OF RESPIRATORY DISEASES IN ANIMALS” (priority 2021, published 2025)
# Columns and labels:
# B. bronchiseptica = test: MIC determination, broth-microdilution (CLSI VET01-A4), field isolates; type: cell-based, Bordetella bronchiseptica
# Method: (§1) This study determined the in vitro activity Compound (A), the enantiomer of the compound of Formula (I), against different isolates of Actinobacillus (A.) pleuropneumoniae, Bordetella (B.) bronchiseptica, Mannheimia (M.) haemolytica, Pasteurella (P.) multocida, Histophilus (H.) somni and Glaesserella parasuis collected in different European countries.
# (§2) The in vitro activity was determined by measuring the minimum inhibitory concentrations (MIC) according to CLSI document VET01-A4 [1] and by calculating MIC50 and MIC90.
# (§3) A total of 193 field isolates were tested: 31 of A. pleuropneumoniae, 20 of B. bronchiseptica, 20 of H. somni, 20 H. parasuis, 55 of M. haemolytica and 47 of P. multocida. All bacteria were isolated from the respiratory tract of cattle and swine suffering from respiratory disease. All isolates were epidemiologically unrelated as specified by the different suppliers. E. coli ATCC 25922 (ID 6105) and M. haemolytica ATCC 33396 (ID 6374) were used as reference strains for testing isolates of B. bronchiseptica, M. haemolytica and P. multocida. A. pleuropneumoniae ATCC 27090 (ID 6314) and H. somni ATCC 700025 (ID 6315) were used as reference strains for the testing isolates of A. pleuropneumoniae, H. somni and Glaesserella parasuis. Additionally, H. parasuis (G. parasuis) ATCC 19417 was included as type strain for growth control.
# (§4) • Mueller-Hinton agar (Becton Dickinson, Lot 9224866) • Cation-adjusted Mueller-Hinton broth, (CAVHB, Becton Dickinson, Lot 8190586) • Sheep blood, defibrinated (Thermo Scientific, Lot 37091500) • Chocolate agar, GC II with IsoVitalex™ (Becton Dickinson, Lot 0147695) • GC-agar base (Becton Dickinson, Lot 6082608) • Hemoglobin solution (Becton Dickinson, Lot 7142854) • Vitox (Oxoid, Lot 2344976) • Veterinary fastidious Medium (VFM), prepared according to CLSI document VET01-A4 [1], containing: • CAMHB (Becton Dickinson, Lot 8190586) • Yeast extract (Sigma, Lot BCBS5470V) • Lysed horse blood (Thermo Scientific, Lot 35875000) • Supplement C™ (Becton Dickinson, Lot 8030960) • Deionized water
# (§5) The MICs for all isolates except for H. somni and Glaesserella parasuis isolates, were determined by using the broth-microdilution method according to CLSI document VET01-A4 [1]. For isolates of H. somni and Glaesserella parasuis the agar-dilution method with chocolate agar GC II, was used. The test concentration range for all compounds was 16 μg/mL to 0.016 μg/mL.
# The MIC results were interpreted according to the CLSI document VET01-S3 [2]. […] All wells containing test item were compared with the growth-control wells. The lowest concentration of compound at which no visible growth (i.e. no turbidity) was detected by the unaided eye was recorded as the MIC. […]
# H. somni = test: MIC determination, agar dilution (chocolate agar GC II), field isolates; type: cell-based, Histophilus somni
# Method: as §1, §2, §3, §4, §5
# For isolates tested by the agar-dilution method, results were interpreted according to the CLSI document VET01-S3 [2]. […] The MIC50 and MIC90 represent the concentrations at which a minimum of 50% or 90% of the isolates tested are inhibited.
# [1] = system: microbes that cause respiratory disease in animals; test: Activity against the microbes that cause respiratory disease in animals (statement); type: cell-based
# [2] = Lung tissue study in cattle; type: in vivo; conditions: after slaughter
# Method: The same animals and compositions of Compound A that were used in Example 5 were also used for the Lung tissue study. The lung was freed from the trachea and appending tissues. One half of the lung was homogenized using a food processor (Robot Coupe). Two aliquots of approximately 1 g were placed into 15 mL Falcon tubes. From the liver, kidney and a skeletal muscle (long back muscle) scissor snips from at least two locations were collected to a total mass of ca. 1 g each and placed into 15 mL Falcon tubes. Tissue samples were diluted with blank EDTA cattle plasma 1+3 (w/v) and samples were homogenized using a FastPrep™ System. After centrifugation aliquots of the supernatants were used to determine compound concentrations by a HPLC-MS/MS procedure.
# [3] = Bordetella bronchiseptica, 20 isolates, broth microdilution
structure (smiles),measurement,setting,value
COCCNCc1ccc(C#Cc2ccc(C(=O)N[C@H](C(=O)NO)C(C)(C)N)cc2)cc1 [Compound A],MIC50,B. bronchiseptica; [3],8 µg/mL
same,MIC90,B. bronchiseptica; [3],16 µg/mL
same,Distribution of MICs: number of isolates with MIC 8 μg/mL,B. bronchiseptica; of 20 isolates tested,10
same,Distribution of MICs: number of isolates with MIC 16 μg/mL,B. bronchiseptica; of 20 isolates tested,10
same,MIC50,"H. somni; Histophilus somni, 20 isolates",1 µg/mL
same,MIC90,"H. somni; Histophilus somni, 20 isolates",2 µg/mL
same,Distribution of MICs: number of isolates with MIC 0.25 μg/mL,H. somni; of 20 isolates tested,1
same,Distribution of MICs: number of isolates with MIC 0.5 μg/mL,H. somni; of 20 isolates tested,1
same,Distribution of MICs: number of isolates with MIC 1 μg/mL,H. somni; of 20 isolates tested,14
same,Distribution of MICs: number of isolates with MIC 2 μg/mL,H. somni; of 20 isolates tested,4
same,Activity against the microbes that cause respiratory disease in animals,[1],activity against the microbes that cause respiratory disease in animals
same,Detection in tissue samples from lungs,[2],substantial amounts
